Assay results: US20250032468A1, “OCULAR SURFACE TOPICAL ADMINISTRATION OF ROFLUMILAST FOR TREATMENT OF ANTERIOR AND RETINAL-VITREOUS CHAMBER OCULAR DISEASES” (IOLYX THERAPEUTICS, INC., priority 2023, published 2025)
Where two headings read alike, the source gives them in different places.

Key:
[1] = Ocular tissue concentration of roflumilast after 5 days topical ocular dosing (Example 8, Table 7); type: in vivo, Dutch belted rabbits
Method: Two unique animal studies were conducted to assess the concentration of roflumilast in various tissues following administration of different concentrations of Example 3. The concentration in various tissues was assessed following five days of administration of the following dosing regimens: (a) 1% w/v roflumilast three times a day (TID); (b) 0.3% w/v roflumilast three times a day (TID); or (c) 0.1% w/v roflumilast two times a day (BID). In one study encompassing (a) and (b), n=6 Dutch belted rabbits per dose arm were dosed topically three times per day according to arm on days 1 to 4, and on day 5, a single dose was given at hour 0. In a different study with the same methodologies and practices, n=21 Dutch belted rabbits represented in group (c) were dosed two times per day on days 1 to 4, and on day 5, a single dose was given at hour 0. […] In the original study conducted solely with arm (c), a dose curve was created using time points at 0.5, 2, 4, 8, and 24 hours. To reduce the number of animals in the second experiment, for group (a) and (b), only 0.5 and 8 hours were tested. FIG. 1 provides data for the concentration of roflumilast (ng/g) in the iris ciliary body (ICB) as a function of time following: (a) 1% w/v roflumilast administered three times a day; (b) 0.3% w/v roflumilast administered three times a day; or (c) 0.1% w/v roflumilast administered two times a day. FIG. 2 provides data for the concentration of roflumilast (ng/g) in the aqueous humor (AH) as a function of time following: (a) 1% w/v roflumilast administered three times a day; (b) 0.3% w/v roflumilast administered three times a day; or (c) 0.1% w/v roflumilast administered two times a day. FIG. 3 provides data for the concentration of roflumilast (ng/g) in the retina/choroid/retina pigment epithelium (RPE) as a function of time following: (a) 1% w/v roflumilast administered three times a day; (b) 0.3% w/v roflumilast administered three times a day; or (c) 0.1% w/v roflumilast administered two times a day. […] (Claveau, 2004) This ratio is shown at both 0.5 hours, closest to a Cmax time point, and 8 hrs, which would be a time point close to a redosing time point for a TID dosing.

[2] = Ocular pigment binding, equilibrium sepia melanin association (Covance, method by Koeberle et al.); type: in vitro ADME
[3] = Saturation concentration of roflumilast in the suspension formulation; type: physicochemical; conditions: formulation characteristic used in the simulation
Method: Computational modeling of topical ophthalmic roflumilast dosing was carried out using an ocular simulation computer program based on Matlab® (Mathworks, Natick, MA) programming language using a runtime Java® applet for a graphical user-friendly interface. Physiological and anatomic parameters for the ocular simulation were customized to model the pigmented rabbit eye, by entering appropriate volumes of distribution and surface areas of anterior and posterior compartment tissues. […] Based on these parameters, theoretical calculations were carried out for all simulations, while for matching concentrations with actual experimental data the model was used for comparison, fitting, and optimization.

[4] = dog, in vivo
Description: (§1) In the study, male and female dogs (n=3M/3F per arm to week 13, 2M/2F to additional 4 week recovery) received 13 weeks of topical treatment, three times a day, followed by a four week recovery period, in four dose arms, 0%, 0.1%, 0.3%, and 1% concentration of roflumilast. In addition to regular safety and well-being checks, animals were given regular ophthalmic exams, measurement of weight, tonometry to test intraocular pressure, pachymetery to test corneal thickness, clinical chemistry and hematological evaluation, and other routine checks of health and well-being. At the point of study termination, ocular tissues and major organs were tested for macro- and microscopic observation.

[5] = rabbit, in vivo
Method: (§2) A study was conducted to evaluate toxicity outcomes of repeated topical ocular administration of roflumilast. Male and female New Zealand white rabbits (n=7 per group) were administered: (a) vehicle-based placebo three times a day; (b) a 0.1% w/v roflumilast formulation (Example 3) three times a day; (c) a 0.3% w/v roflumilast formulation (Example 3) three times a day; or (d) a 1.0% w/v roflumilast formulation (Example 3) three times a day. In the study, male and female New Zealand White rabbits received 13 weeks of topical treatment, three times a day, followed by a four-week recovery period, in four dose arms, 0%, 0.1%, 0.3%, and 1% concentration of roflumilast. In addition to regular safety and well-being checks, animals were given regular ophthalmic exams, measurement of weight, tonometry to test intraocular pressure, clinical chemistry and hematological evaluation, and other routine checks of health and well being. At the point of study termination, ocular tissues and major organs were tested for macro- and microscopic observation. […] Parameters evaluated included body weight, intraocular pressure (IOP), and central corneal thickness (CCT).

[6] = test system: PDE4 A, B, D; conditions: also printed as 0.07 ng/g; cited from earlier work
[7] = 13-week repeated topical ocular administration study in dogs (Example 10)
Description: as §1

[8] = 13-week repeated topical ocular administration toxicity study in rabbits (Example 11); conditions: for intraocular pressure: FIG. 15
Method: as §2

## O=C(Nc1c(Cl)cncc1Cl)c1ccc(OC(F)F)c(OCC2CC2)c1 [Roflumilast, N-(3,5-dichloropyrid-4-yl)-3-cyclopropylmethoxy-4-difluoromethoxybenzamide]
[1]; AH, 0.10% BID days 1-4, single dose day 5, 0.5 hrs post dose
  Ratio of Roflumilast Concentration to PDE4 IC50: 53×
[1]; AH, 0.10% BID days 1-4, single dose day 5, 8 hrs post dose
  Ratio of Roflumilast Concentration to PDE4 IC50: 0×
[1]; AH, 0.30% TID days 1-4, single dose day 5, 0.5 hrs post dose
  Ratio of Roflumilast Concentration to PDE4 IC50: 143×
[1]; AH, 0.30% TID days 1-4, single dose day 5, 8 hrs post dose
  Ratio of Roflumilast Concentration to PDE4 IC50: 4×
[1]; AH, 1.00% TID days 1-4, single dose day 5, 0.5 hrs post dose
  Ratio of Roflumilast Concentration to PDE4 IC50: 476×
[1]; AH, 1.00% TID days 1-4, single dose day 5, 8 hrs post dose
  Ratio of Roflumilast Concentration to PDE4 IC50: 10×
[1]; Cornea, 0.10% BID days 1-4, single dose day 5, 0.5 hrs post dose
  Ratio of Roflumilast Concentration to PDE4 IC50: 2286×
[1]; Cornea, 0.10% BID days 1-4, single dose day 5, 8 hrs post dose
  Ratio of Roflumilast Concentration to PDE4 IC50: 509×
[1]; ICB, AH, and retina/choroid/RPE, 0.3% and 1% TID
  tissue levels relative to the IC50 level: strong elevation in tissue levels above the IC50 level
[1]; ICB, 0.10% BID days 1-4, single dose day 5, 0.5 hrs post dose
  Ratio of Roflumilast Concentration to PDE4 IC50: 66×
[1]; ICB, 0.10% BID days 1-4, single dose day 5, 8 hrs post dose
  Ratio of Roflumilast Concentration to PDE4 IC50: 2×
[1]; ICB, 0.30% TID days 1-4, single dose day 5, 0.5 hrs post dose
  Ratio of Roflumilast Concentration to PDE4 IC50: 247×
[1]; ICB, 0.30% TID days 1-4, single dose day 5, 8 hrs post dose
  Ratio of Roflumilast Concentration to PDE4 IC50: 9×
[1]; ICB, 1.00% TID days 1-4, single dose day 5, 0.5 hrs post dose
  Ratio of Roflumilast Concentration to PDE4 IC50: 534×
[1]; ICB, 1.00% TID days 1-4, single dose day 5, 8 hrs post dose
  Ratio of Roflumilast Concentration to PDE4 IC50: 22×
[1]; RET/CHOR, 0.10% BID days 1-4, single dose day 5, 0.5 hrs post dose
  Ratio of Roflumilast Concentration to PDE4 IC50: 15×
[1]; RET/CHOR, 0.10% BID days 1-4, single dose day 5, 8 hrs post dose
  Ratio of Roflumilast Concentration to PDE4 IC50: 5×
[1]; RET/CHOR, 0.30% TID days 1-4, single dose day 5, 0.5 hrs post dose
  Ratio of Roflumilast Concentration to PDE4 IC50: 91×
[1]; RET/CHOR, 0.30% TID days 1-4, single dose day 5, 8 hrs post dose
  Ratio of Roflumilast Concentration to PDE4 IC50: 14×
[1]; RET/CHOR, 1.00% TID days 1-4, single dose day 5, 0.5 hrs post dose
  Ratio of Roflumilast Concentration to PDE4 IC50: 167×
[1]; RET/CHOR, 1.00% TID days 1-4, single dose day 5, 8 hrs post dose
  Ratio of Roflumilast Concentration to PDE4 IC50: 52×
[1]; cornea, 0.1% BID four days plus single dose day 5, FIG. 5
  duration of terminal level therapeutic concentrations covering the relevant IC50: ~24 h
[2]
  ocular pigment binding: medium to high
[3]
  saturation concentration: 6 µg/mL
[4]
  tolerability: well tolerated at all concentrations
[5]
  tolerability: well tolerated at all concentrations
[6]
  IC50 of t-cells for the PDE4 A, B, D targets: 0.07 ng/mL
[7]; 0.1%, 0.3%, 1% TID topical ocular, 13 weeks plus 4 week recovery
  major clinical or pathological findings in life or post-mortem: no major test article related findings
[7]; 0.1%, 0.3%, 1.0% w/v TID
  systemic adverse effect on the eye or other organs (ophthalmic and other exams): little to no systemic adverse effect
[7]; all concentrations TID, compared to vehicle-based placebo, FIG. 11
  body weight: did not lose weight
[7]; all treatment groups over the duration of the study, FIG. 13
  central corneal thickness: substantially consistent for all treatment groups
[7]; all treatment groups, only transient changes seen sporadically, FIG. 12
  intraocular pressure: substantially the same for all treatment groups
[8]; New Zealand White rabbits, 0.1%, 0.3%, 1% TID topical ocular, 13 weeks plus four-week recovery
  major clinical or pathological findings in life or post-mortem: no major test article related findings
[8]; rabbits, 0.1% w/v TID, day 28, only transiently, still within a normal range
  intraocular pressure: higher
[8]; rabbits, 0.1%, 0.3%, 1.0% w/v TID
  systemic adverse effect on the eye or other organs (ophthalmic and other exams): little to no systemic adverse effect
[8]; rabbits, all concentrations TID, compared to vehicle-based placebo, FIG. 14
  body weight: did not lose weight
[8]; rabbits, all treatment groups, FIG. 16
  central corneal thickness: substantially the same for all treatment groups
[8]; rabbits, all treatment groups, remaining days
  intraocular pressure: substantially the same for all treatment groups
